Results published in the SangsterLogP compilation.

Experiment: method code SF, from DOI: 10.1021/jf00070a034

SMILES | logP
CCCc1ccc(NC(=O)N(C)C)cc1 | 2.55
O=C(Cc1ccccc1)Nc1ccccc1 | 2.72
CCCC(C)C(=O)Nc1ccc(C)c(Cl)c1 (stereo not drawn) | 4.31
CC(C)CNC(=O)Nc1ccc(Cl)c(Cl)c1 | 4.48
O=C(Cc1ccccc1)Nc1ccc([N+](=O)[O-])cc1 | 3.17
C=CC(C)C(=O)Nc1ccc(Cl)c(Cl)c1 (stereo not drawn) | 3.49
CN(C)C(=O)Nc1cccc(Cc2ccccc2)c1 | 2.83
CC1(NC(=O)Nc2ccccc2)CCCCC1 | 3.6
CN(C)C(=O)Nc1cccc(CCc2ccccc2)c1 | 3.21
CNC(=O)Nc1cccc(OC)c1 | 1.26
CN(C)C(=O)Nc1ccc(Cl)cc1 | 2.01

The remaining lines, values ahead:

logP | SMILES
3.83 | CCCC(C)(C)C(=O)Nc1ccc(Cl)cc1
4.74 | CCCCCC(C)Nc1nc(Cl)nc(NCC)n1 (stereo not drawn)
3.63 | CCNc1nc(Cl)nc(NC2CCCCC2)n1
2.85 | CCNc1nc(Cl)nc(NCC2CC2)n1
2.75 | C=CCNc1nc(Cl)nc(NCC=C)n1
2.13 | CCNc1nc(Cl)nc(NC2CC2)n1
2.77 | CCNc1nc(Cl)nc(NC2CCC2)n1
